Source: patent US20220402914A1, “Tryptoline-Based Benzothiazoles and their use as Antibiotics and Antibiotic Resistance-Modifying Agents” (The Regents of the University of Colorado, a body corporate, priority 2019, published 2022)
≈ marks a conversion by molar mass, not a printed value. Read-outs that look alike come from different tables or passages of the source.

What was measured:
MRSA ATCC BAA-44 [1] = experiment: Minimal inhibitory concentration (MIC), standard broth microdilution; format: cell-based, Staphylococcus aureus; details: for MIC: MRSA BAA-44 strain
Protocol: (§1) RMA activity of the analogues was tested by assessing their abilities to sensitize MRSA to the antibiotic cefazolin (a first-generation cephalosporin). The well characterized strain MRSA ATCC BAA-44 was tested as previously described. […] The minimal inhibitory concentration (MIC), or the lowest concentration at which S. aureus is considered susceptible to an antibacterial, was determined by the standard broth microdilution method detailed in the CLSI handbook. RMA activity was compared by the ratio of MIC/MRC. The half growth inhibitory concentration (GI50) of each analogue against HeLa cells was determined as previously described. […] The luminescence of each sample was recorded in an Envision Multilabel Plate Reader (Perkin Elmer). Results of MICs and MRCs were confirmed by testing in triplicate. The GI50 assay was performed in duplicate.

MRSA ATCC BAA-44 [2] = experiment: Minimum re-sensitizing concentration (MRC) in the presence of cefazolin; format: cell-based, Staphylococcus aureus; details: MRSA BAA-44, cefazolin
Protocol: as §1

HeLa cells = experiment: GI50 against HeLa cells, Cell Titer Glo viability assay; format: cell-based, human; details: for GI50: 24 h
Protocol: as §1

[3] = Staphylococcus aureus, read-out: MIC

| Structure (SMILES) | MIC (MRSA ATCC BAA-44 [1]; [3]) | RMA activity (in words) (MRSA ATCC BAA-44 [2]) | RMA activity (ratio of MIC/MRC) (MRSA ATCC BAA-44 [2]) | GI50 (HeLa cells) | worse GI50 relative to 4w (HeLa cells) | increase of RMA activity relative to 4a (MRSA ATCC BAA-44 [2]) | MIC (MRSA ATCC BAA-44 [1]) | MIC (in words) (MRSA ATCC BAA-44 [1]; MRSA BAA-44) |
| --- | --- | --- | --- | --- | --- | --- | --- | --- |
| COC(=O)C1CN(c2nc3ccc(Cl)cc3s2)Cc2[nH]c3ccc(Cl)cc3c21 (racemic) [Compound 4n, Methyl 6-chloro-2-(6-chlorobenzo[d]thiazol-2-yl)-2,3,4,9-tetrahydro-1H-pyrido[3,4-b]indole-4-carboxylate] | > 32 µg/mL | without compromising the RMA activity | 32 fold | 6.6 µg/mL (≈ 15.3 µM) |  |  |  |  |
| O=C(O)C1CN(c2nc3ccc(Cl)cc3s2)Cc2[nH]c3ccc(Cl)cc3c21 (racemic) [Compound 8, 6-Chloro-2-(6-chlorobenzo[d]thiazol-2-yl)-2,3,4,9-tetrahydro-1H-pyrido[3,4-b]indole-4-carboxylic acid] | 32 µg/mL (≈ 76.5 µM) | significantly decreased or abolished the RMA activity |  | 65 µg/mL (≈ 155 µM) |  |  |  |  |
| Clc1ccc2nc(N3CCc4c([nH]c5ccc(Cl)cc45)C3)sc2c1 [Compound 4a, 6-Chloro-2-(6-chloro-1,3-benzothiazol-2-yl)-2,3,4,9-tetrahydro-1H-pyrido[3,4-b]indole] | > 64 µg/mL |  | 32 fold | 13.2 µg/mL (≈ 35.3 µM) |  |  |  |  |
| FC(F)(F)c1cccc2sc(N3CCc4c([nH]c5ccc(Cl)cc45)C3)nc12 [Compound 4af, 6-Chloro-2-[4-(trifluoromethyl)-1,3-benzothiazol-2-yl]-2,3,4,9-tetrahydro-1H-pyrido[3,4-b]indole] | > 32 µg/mL | good RMA activities |  | 8 µg/mL (≈ 19.6 µM) | 3 fold |  |  |  |
| CNc1cc(C(F)(F)F)c2nc(N3CCc4c([nH]c5ccc(Cl)cc45)C3)sc2c1 [Compound 4ai, 2-(6-Chloro-1,3,4,9-tetrahydro-2H-pyrido[3,4-b]indol-2-yl)-N-methyl-4-(trifluoromethyl)-1,3-benzothiazol-6-amine] | > 32 µg/mL | good RMA activities |  | 15.4 µg/mL (≈ 35.2 µM) |  |  |  |  |
| COC(=O)C1Cc2c([nH]c3ccc(Cl)cc23)CN1c1nc2ccc(Cl)cc2s1 (stereo not drawn) [Compound 4m, Methyl 6-chloro-2-(6-chloro-1,3-benzothiazol-2-yl)-2,3,4,9-tetrahydro-1H-pyrido[3,4-b]indole-3-carboxylate] | > 64 µg/mL | abolished |  |  |  |  |  |  |
| Clc1ccc2[nH]c3c(c2c1)CCN(c1nc2ccc(Br)cc2s1)C3 [Compound 4p, 2-(6-Bromo-1,3-benzothiazol-2-yl)-6-chloro-2,3,4,9-tetrahydro-1H-pyrido[3,4-b]indole] | > 64 µg/mL | retained the RMA activity |  | 5.1 µg/mL (≈ 12.2 µM) |  |  |  |  |
| FC(F)(F)c1ccc2nc(N3CCc4c([nH]c5ccc(Cl)cc45)C3)sc2c1 [Compound 4s, 6-Chloro-2-[6-(trifluoromethyl)-1,3-benzothiazol-2-yl]-2,3,4,9-tetrahydro-1H-pyrido[3,4-b]indole] | > 64 µg/mL |  |  | 4.6 µg/mL (≈ 11.3 µM) |  | 4 fold |  |  |
| FC(F)(F)Oc1ccc2nc(N3CCc4c([nH]c5ccc(Cl)cc45)C3)sc2c1 [Compound 4t, 6-Chloro-2-[6-(trifluoromethoxy)-1,3-benzothiazol-2-yl]-2,3,4,9-tetrahydro-1H-pyrido[3,4-b]indole] |  | lost the RMA activity completely |  | 7.3 µg/mL (≈ 17.2 µM) |  |  | 1 µg/mL (≈ 2.36 µM) |  |
| Clc1ccc2[nH]c3c(c2c1)CCN(c1nc2cccc(Cl)c2s1)C3 [Compound 4u, 6-Chloro-2-(7-chloro-1,3-benzothiazol-2-yl)-2,3,4,9-tetrahydro-1H-pyrido[3,4-b]indole] | 4 µg/mL (≈ 10.7 µM) | reduced RMA activity |  | 6.7 µg/mL (≈ 17.9 µM) |  |  |  | increased MIC |
| Clc1ccc2sc(N3CCc4c([nH]c5ccc(Cl)cc45)C3)nc2c1 [Compound 4v, 6-Chloro-2-(5-chloro-1,3-benzothiazol-2-yl)-2,3,4,9-tetrahydro-1H-pyrido[3,4-b]indole] |  | no RMA activity |  |  |  |  |  |  |
